Test results published in US6011000A, “Compositions for the treatment of blood disorders” (priority 1995, dated 2000).

Tests used:
[1] = test system: erythroid cells (peripheral blood); assay: Erythroid cell viability by fluorescent staining (Calcein-AM), FIG. 2; assay type: cell-based, human; details: 0.5 mM, vs untreated controls
Experimental: FIG. 2 Peripheral blood cell viability after incubation with arginine butyrate, dihydrocinnamic acid, phenoxyacetic acid and butyric acid ethyl ester.
Compositions were tested for the ability to directly stimulate erythroid cell growth. Cell growth stimulation is a useful property for an agent to be used to treat anemias and distinguishes such agents from the cytotoxic drugs currently being tested for treatment of hemoglobinopathies. Cell viability analyses were performed using fluorescent staining to detect living cells. Cells were in log phase of growth in 6-well dishes when used in proliferation assays. For enumeration of living cells, wells were washed once with medium to remove nonadherent or dead cells. Remaining live cells were labeled with 2 μM 2',7'-bis-(carboxyethyl)-5-(and 6)-carboxy-fluorescein acetoxy-methyl ester (Calcein-AM) (Molecular Probes; Eugene, Oreg.) for 20 minutes at 37° C. and washed once. Fluorescence intensity of live cells was read on a CytoFluor 2300 Fluorescence Plate Scanner (Millipore; Bedford, Mass.) at excitation and emission wavelengths of 485 and 530 nm, respectively. The fluorescence intensity of a well was proportional to the number of living cells in the well. Background fluorescence was measured separately for each plate and subtracted from all readings. Each experiment was performed in triplicate or quadruplicate. The standard deviation (SD) of repetitive readings was less than 30% of the mean. Results are depicted in FIG. 2.

[2] = test system: K562 cells; assay: Dose response of cell growth, trypan blue exclusion (FIG. 3); assay type: cell-based, human; details: up to 2.0 mM, day 4
Experimental: FIG. 3 Cell viability as determined by the comparative numbers of total and viable K562 cells in the presence of increasing concentrations of (A) phenoxyacetic acid, (B) dihydrocinnamic acid, (C) butyric acid ethyl ester, (D) arginine butyrate, and (E) isobutyramide.
Dose response curves at dosages of up to 2.0 mM were also determined for phenoxyacetic acid (PAA; FIG. 3A), dihydrocinnamic acid (DHC; FIG. 3B), butyric acid ethyl ester (BAEE; FIG. 3C), arginine butyrate (AB; FIG. 3D) and isobutyramide (IBT; FIG. 3E). Cells were counted on day 4 of treatment and viable cells identified by trypan blue exclusion.

[3] = test system: fetal globin (gamma globin); assay: Fetal globin expression in erythroid progenitor cells from cord blood; assay type: cell-based, human
Experimental: Compositions were tested for activity in inducing fetal globin expression and protein production in erythroid progenitor cells cultured from human cord blood and analyzed as described by S. P. Perrine et al. (Blood 74: 454-60, 1989). Briefly, mononuclear cells were cultured in IMDM with 30% fetal calf serum and 2 units erythropoietin per ml to induce erythroid differentiation. Colonies were harvested on day 12-13, incubated with radio-labelled (^3 H) leucine, and further incubated in leucine-free media, still in the presence of compounds, overnight. Globin composition in the erythroid cells was analyzed by laser densitometry of electrophoretically separated globin chains stained with Coomassie blue, and by autoradiography. Treated cells were incubated for 12-13 days (Table 2, Experiments A and B) or overnight (Table 2, Experiment C) in the presence of the indicated compounds and compared to untreated control cells cultured from the same human subject.

[4] = test system: fetal globin mRNA (human erythroleukemia cells); assay: Fetal globin mRNA in erythroleukemia cells (primer extension); assay type: cell-based
Experimental: Compounds were tested for increased expression of the human globin genes in human erythroid cells. In addition, as the cell line being tested is a tumor cell line, the assay determines if differentiation, a growth inhibitory effect on cancer cells, is induced by the compounds tested. Human erythroleukemia cells were cultured in RPMI media with 10% fetal calf serum alone or with treatment with various compounds for 4 days. Globin MRNA was quantitated by primer extension analysis. Fetal globin mRNA was compared to the amount of fetal globin mRNA produced in untreated cells during the same culture period. The quantitation was expressed as a percent of alpha globin MRNA which was constant. Results are expressed proportional to α-globin mRNA (Table 3).

[5] = test system: K562; assay: Growth of human erythroid cell line K562; assay type: cell-based; details: for growth of K562: 0.5 mM, over 3 days
Experimental: Such activities might limit their utility for treatment of anemias such as occur in thalassemia, but alternatively would be useful for anticancer effects. […]
Cell viability analyses were performed using fluorescent staining to detect living cells. Cells were in log phase of growth in 6-well dishes when used in proliferation assays. For enumeration of living cells, wells were washed once with medium to remove nonadherent or dead cells. Remaining live cells were labeled with Calcein-AM for 20 minutes at 37° C. and washed once. Fluorescence intensity of adherent live cells was read on a CytoFluor 2300 Fluorescence Plate Scanner (Millipore; Bedford, Mass.) at excitation and emission wavelengths of 485 and 530 nm, respectively. The fluorescence intensity of a well was proportional to the number of living cells in the well. Background fluorescence was measured separately for each plate and subtracted from all readings. Each experiment was performed in triplicate or quadruplicate. The standard deviation (SD) of repetitive readings was less than 30% of the mean.
At higher concentrations, still easily achievable in vivo, arginine butyrate (0.5 mM) and dihydrocinnamic acid (greater than 0.5 mM) inhibited growth of this tumor cell line by approximately 50%. Therefore, these compounds are also useful as anti-tumor agents.

[6] = test system: human erythroid cells; assay: DNA fragmentation by flow cytometry (degradation of DNA); assay type: cell-based
Experimental: Such activities might limit their utility for treatment of anemias such as occur in thalassemia, but alternatively would be useful for anticancer effects. To determine cell viability, human erythroid cells were cultured in the presence and absence of these compounds for 4 days and the amount of DNA fragmentation which occurred was measured.
Flow cytometric determination of DNA profiles and DNA fragmentation were determined. Cytometric analysis was performed with a FACScan (Becton Dickenson Instruments; Columbia, Md.). The data analysis and display were performed using the Cell-Fit software program. Approximately 0.5×10^6 cells were washed twice with PBS and resuspended in 1 ml of 1% sodium citrate, 0.1% Triton X-100 and 50 μg of propidium iodide/ml. Resulting permeabilized cells were kept in the dark at 4° C. overnight before DNA profile or DNA fragmentation analysis (Table 4).

[7] = test system: BFU-e (burst forming unit-erythroid); assay: BFU-e stimulation (colony growth) in cultured peripheral blood mononuclear cells; assay type: cell-based; details: Homo sapiens, PBMC; 0.1 mM; read-out: more BFU-e colonies from the same number of mononuclear cells than control cultures
Experimental: Peripheral blood was collected from normal volunteers and patients with anemia due to sickle cell disease or thalassemia Mononuclear cells were isolated by Ficoll-Hypaque (Pharmacia Biotech; Piscataway, N.J.) centrifugation and cultured in Iscove's Modified Dulbecco's Media (IMDM; GIBCO/BRL; Grand Island, N.Y.) supplemented with 10% fetal calf serum, 300 μg/ml glutamine, 3 units/ml IL 3 (Amgen; Thousand Oaks, Calif.), and 2 units/ml erythropoietin (Terry Fox Labs; Vancouver, B.C.). Chemical compounds were obtained from Sigma Chemical (St. Louis, Mo.) or Aldrich Chemical (Milwaukee, Wis.), unless otherwise indicated, and formulated into pharmaceutical compositions by dissolving in aqueous solutions of media or sterile water pH adjusted to about 7.4. Solutions were sterilized by passage at least once through 0.22 micron Nalgene filters and added to cell cultures at final concentrations that are pharmaceutically achievable in vivo (typically between about 0.1 mM to 2.0 MM). Cells were incubated with compounds for between 13-14 days at 37° C. in humidified 5% CO2, and fed and passed, as necessary. Colony growth, proportion of fetal globin-expressing cells and amounts of fetal globin production were assayed. Results are presented in Table 1 as BFU-e stimulation (colony growth). […]

[8] = test system: anemic baboon; assay: In vivo reticulocyte proliferation, globin expression and blood counts in anemic (phlebotomized) baboons; details: 4 days
Experimental: Experiments were performed to determine if administration of the chemical compositions could induce fetal globin gene expression in an in vivo model similar to humans (S. P. Perrine et al., Brit. J. Haematol. 88:555-61, 1994). Briefly, chemicals were prepared as sterile pharmaceutical solutions in pH adjusted sterile water. A variety of chemical compositions were administered sequentially to some baboons. After administration of one compound, a wash-out period with no compound administration was maintained until reticulocytes returned to base line prior to administration of the next compound. This was done, at least partly, to compare the magnitude of response which occurred within the same individual animal to different compounds.
Briefly, juvenile female baboons (2 years old) were catheterized with arterial and venous catheters and phlebotomized gradually every day to maintain a moderate anemia of 7.0 to 7.5 grams hemoglobin/dl. Fetal reticulocytes, the newly produced red blood cells containing fetal globin, were assayed using a monoclonal antibody against fetal globin (HbF) as described by G. Dover et al. (Blood 67:735-38, 1986). Briefly, blood was stained with two antibodies, one specific for reticulocytes and another against fetal globin protein. The amount of antibody bound cells was determined by FACS analysis. Globin chain synthesis was assayed as described by J. B. Clegg et al. (J. Mol. Biol. 19:91-108, 1966). Briefly, reticulocytes were radio-labeled with ^3 H-leucine which was incorporated in equal proportions into actively synthesized globin chains. After incubation in leucine-free media, cells were washed, and globin proteins were separated and purified by column chromatography. Radioactivity incorporated into each peak is compared and the ratios of gamma to gamma plus beta globin calculated. Each animal served as its own control with baseline monitoring assays performed for 4-6 weeks before any drug was administered. Phlebotomy was continued daily, so that peripheral HbF levels in the animals were not considered to be accurate over the short treatment time-frames and were not monitored. Safety monitoring was performed by frequent physical examinations, quantitation of food eaten, activity and frequent chemistry and hematology monitoring. Complete blood counts were assayed before, during and after treatment. Results presented were not adjusted to account for the daily phlebotomy.

[9] = test system: hemoglobin polymerization; details: artificially deoxygenated blood; cited from earlier work
[10] = Exp. A, 0.1 mM, 12-13 days, untreated 76.0%
[11] = Exp. C, 0.1 mM, overnight, untreated 52.0%

In the case of `CCCC(=O)OCC` [BAEE, butyric acid ethyl ester], the “erythroid cell growth and proliferation” value [1] is reported as “either had no effect or stimulated erythroid cell growth and proliferation”, the proliferation [2] is reported as “did not significantly inhibit proliferation” and the “Gamma/(Gamma + Beta)” value [3, 10] is reported as 89.5%. For the same compound, the “Gamma/(Gamma + Beta)” value ([3]; Exp. B, 0.2 mM, 12-13 days, untreated 25.4%, 27.5%) was 74.0%, the “Gamma/(Gamma + Beta)” value [3, 11] was 64.6% and the “induction of fetal globin mRNA” value [4] was “significantly increased the induction of fetal globin MRNA”. The “stimulation of fetal globin expression relative to AB” value ([4]; 1.0 mM) was “over two times greater than even AB alone”, the Gamma/Alpha ([4]; 1.0 mM, 4 days, untreated 0.46) was 0.90 and the activation at 1000 µM ([4]; Homo sapiens, 96 h, 1.0 mM, 4 days, read-out: Gamma Globin mRNA (increase)) was 44%. For the same compound, the “growth of K562” value [5] was “either did not inhibit, or slightly enhanced growth”, the “proportion of degraded DNA” value ([6]; 1.0 mM to 2.0 mM, untreated 26%) was 13.8% and the “Degraded DNA” value ([6]; 2.0 mM, 4 days, control 26%, 22%) was 13.8%. For the same compound, the “DNA fragmentation / cell viability / DNA integrity” value ([6]; DNA fragmentation assays) was “reduce DNA fragmentation”.
For `O=C(O)CCc1ccccc1` [DHC, Dihydrocinnamic acid], the activation at 100 µM [7] was 124%, the “erythroid cell growth and proliferation” value [1] was “either had no effect or stimulated erythroid cell growth and proliferation” and the “Gamma/(Gamma + Beta)” value [3, 10] was 88.0%. The “Gamma/(Gamma + Beta)” value [3, 11] was 76.0%, the “Gamma/(Gamma + Beta)” value ([3]; Exp. C, 0.2 mM, overnight, untreated 52.0%) was 71.9% and the “Gamma/(Gamma + Beta)” value ([3]; Exp. C, 0.5 mM, overnight, untreated 52.0%) was 71.3%. For the same compound, the “growth of K562” value [5] was “either did not inhibit, or slightly enhanced growth”, the “growth inhibition of K562” value ([5]; greater than 0.5 mM) was “approximately 50%” and the “red blood cell count” value ([8]; 1,000 mg/kg/day i.v., from 2.3) was 2.73 10^6 cells/μl. For the same compound, the Total hemoglobin ([8]; 1,000 mg/kg/day i.v., from 6.6) was 7.3 grams/dl, the “packed red blood cell volume” value ([8]; 1,000 mg/kg/day i.v., from 20.9%) was 22.7 % of the blood and the Fetal reticulocytes ([8]; 300 to 500 mg/kg per day infused, from 10%) was 17%.
For `CC(C)(Oc1ccc(Cl)cc1)C(=O)O` [clofibric acid], the inhibition of polymerization [9] is listed as “inhibit polymerization”.
In the case of `O=C(O)COc1ccc(Cl)cc1` [p-chloro phenoxy acetic acid], the inhibition of polymerization [9] is given as “inhibit polymerization”.
